{"source": "BigSolDB 2.1", "data": [{"smiles": "Nc1nc(=O)[nH]cc1F", "values": [{"measurement": "solubility (mole fraction)", "setting": "in 1,4-dioxane, 283.15 K", "result": "1.13e-05"}, {"measurement": "solubility (mole fraction)", "setting": "in 1,4-dioxane, 288.15 K", "result": "1.51e-05"}, {"measurement": "solubility (mole fraction)", "setting": "in 1,4-dioxane, 293.15 K", "result": "1.92e-05"}, {"measurement": "solubility (mole fraction)", "setting": "in 1,4-dioxane, 298.15 K", "result": "2.37e-05"}, {"measurement": "solubility (mole fraction)", "setting": "in 1,4-dioxane, 303.15 K", "result": "2.82e-05"}, {"measurement": "solubility (mole fraction)", "setting": "in 1,4-dioxane, 308.15 K", "result": "3.43e-05"}, {"measurement": "solubility (mole fraction)", "setting": "in 1,4-dioxane, 313.15 K", "result": "4.17e-05"}, {"measurement": "solubility (mole fraction)", "setting": "in 1,4-dioxane, 318.15 K", "result": "5.08e-05"}, {"measurement": "solubility (mole fraction)", "setting": "in 1,4-dioxane, 323.15 K", "result": "6.07e-05"}, {"measurement": "solubility (mole fraction)", "setting": "in 2-butanone, 283.15 K", "result": "4.37e-05"}, {"measurement": "solubility (mole fraction)", "setting": "in 2-butanone, 288.15 K", "result": "5.91e-05"}, {"measurement": "solubility (mole fraction)", "setting": "in 2-butanone, 293.15 K", "result": "7.74e-05"}, {"measurement": "solubility (mole fraction)", "setting": "in 2-butanone, 298.15 K", "result": "9.76e-05"}, {"measurement": "solubility (mole fraction)", "setting": "in 2-butanone, 303.15 K", "result": 0.000121}, {"measurement": "solubility (mole fraction)", "setting": "in 2-butanone, 308.15 K", "result": 0.000149}, {"measurement": "solubility (mole fraction)", "setting": "in 2-butanone, 313.15 K", "result": 0.000184}, {"measurement": "solubility (mole fraction)", "setting": "in 2-butanone, 318.15 K", "result": 0.000223}, {"measurement": "solubility (mole fraction)", "setting": "in 2-butanone, 323.15 K", "result": 0.000271}, {"measurement": "solubility (mole fraction)", "setting": "in DMF, 283.15 K", "result": 0.00113}, {"measurement": "solubility (mole fraction)", "setting": "in DMF, 288.15 K", "result": 0.00127}, {"measurement": "solubility (mole fraction)", "setting": "in DMF, 293.15 K", "result": 0.00146}, {"measurement": "solubility (mole fraction)", "setting": "in DMF, 298.15 K", "result": 0.00169}, {"measurement": "solubility (mole fraction)", "setting": "in DMF, 303.15 K", "result": 0.00193}, {"measurement": "solubility (mole fraction)", "setting": "in DMF, 308.15 K", "result": 0.0022}, {"measurement": "solubility (mole fraction)", "setting": "in DMF, 313.15 K", "result": 0.00252}, {"measurement": "solubility (mole fraction)", "setting": "in DMF, 318.15 K", "result": 0.00287}, {"measurement": "solubility (mole fraction)", "setting": "in DMF, 323.15 K", "result": 0.00329}, {"measurement": "solubility (mole fraction)", "setting": "in DMSO, 283.15 K", "result": 0.00559}, {"measurement": "solubility (mole fraction)", "setting": "in DMSO, 288.15 K", "result": 0.00611}, {"measurement": "solubility (mole fraction)", "setting": "in DMSO, 293.15 K", "result": 0.00675}, {"measurement": "solubility (mole fraction)", "setting": "in DMSO, 298.15 K", "result": 0.00754}, {"measurement": "solubility (mole fraction)", "setting": "in DMSO, 303.15 K", "result": 0.00838}, {"measurement": "solubility (mole fraction)", "setting": "in DMSO, 308.15 K", "result": 0.00932}, {"measurement": "solubility (mole fraction)", "setting": "in DMSO, 313.15 K", "result": 0.0103}, {"measurement": "solubility (mole fraction)", "setting": "in DMSO, 318.15 K", "result": 0.0115}, {"measurement": "solubility (mole fraction)", "setting": "in DMSO, 323.15 K", "result": 0.0129}, {"measurement": "solubility (mole fraction)", "setting": "in acetone, 283.15 K", "result": "6.9e-05"}, {"measurement": "solubility (mole fraction)", "setting": "in acetone, 288.15 K", "result": "8.62e-05"}, {"measurement": "solubility (mole fraction)", "setting": "in acetone, 293.15 K", "result": 0.000107}, {"measurement": "solubility (mole fraction)", "setting": "in acetone, 298.15 K", "result": 0.000131}, {"measurement": "solubility (mole fraction)", "setting": "in acetone, 303.15 K", "result": 0.000158}, {"measurement": "solubility (mole fraction)", "setting": "in acetone, 308.15 K", "result": 0.000192}, {"measurement": "solubility (mole fraction)", "setting": "in acetone, 313.15 K", "result": 0.000224}, {"measurement": "solubility (mole fraction)", "setting": "in acetone, 318.15 K", "result": 0.000273}, {"measurement": "solubility (mole fraction)", "setting": "in acetone, 323.15 K", "result": 0.000321}, {"measurement": "solubility (mole fraction)", "setting": "in acetonitrile, 283.15 K", "result": "7e-06"}, {"measurement": "solubility (mole fraction)", "setting": "in acetonitrile, 288.15 K", "result": "9.6e-06"}, {"measurement": "solubility (mole fraction)", "setting": "in acetonitrile, 293.15 K", "result": "1.31e-05"}, {"measurement": "solubility (mole fraction)", "setting": "in acetonitrile, 298.15 K", "result": "1.77e-05"}, {"measurement": "solubility (mole fraction)", "setting": "in acetonitrile, 303.15 K", "result": "2.23e-05"}, {"measurement": "solubility (mole fraction)", "setting": "in acetonitrile, 308.15 K", "result": "2.84e-05"}, {"measurement": "solubility (mole fraction)", "setting": "in acetonitrile, 313.15 K", "result": "3.58e-05"}, {"measurement": "solubility (mole fraction)", "setting": "in acetonitrile, 318.15 K", "result": "4.5e-05"}, {"measurement": "solubility (mole fraction)", "setting": "in acetonitrile, 323.15 K", "result": "5.67e-05"}, {"measurement": "solubility (mole fraction)", "setting": "in ethyl acetate, 283.15 K", "result": "3.5e-06"}, {"measurement": "solubility (mole fraction)", "setting": "in ethyl acetate, 288.15 K", "result": "4.5e-06"}, {"measurement": "solubility (mole fraction)", "setting": "in ethyl acetate, 293.15 K", "result": "6.2e-06"}, {"measurement": "solubility (mole fraction)", "setting": "in ethyl acetate, 298.15 K", "result": "8.6e-06"}, {"measurement": "solubility (mole fraction)", "setting": "in ethyl acetate, 303.15 K", "result": "1.14e-05"}, {"measurement": "solubility (mole fraction)", "setting": "in ethyl acetate, 308.15 K", "result": "1.46e-05"}, {"measurement": "solubility (mole fraction)", "setting": "in ethyl acetate, 313.15 K", "result": "1.93e-05"}, {"measurement": "solubility (mole fraction)", "setting": "in ethyl acetate, 318.15 K", "result": "2.45e-05"}, {"measurement": "solubility (mole fraction)", "setting": "in ethyl acetate, 323.15 K", "result": "3.11e-05"}, {"measurement": "solubility (mole fraction)", "setting": "in isopropanol, 283.15 K", "result": 0.00016}, {"measurement": "solubility (mole fraction)", "setting": "in isopropanol, 288.15 K", "result": 0.000204}, {"measurement": "solubility (mole fraction)", "setting": "in isopropanol, 293.15 K", "result": 0.000253}, {"measurement": "solubility (mole fraction)", "setting": "in isopropanol, 298.15 K", "result": 0.000314}, {"measurement": "solubility (mole fraction)", "setting": "in isopropanol, 303.15 K", "result": 0.000382}, {"measurement": "solubility (mole fraction)", "setting": "in isopropanol, 308.15 K", "result": 0.000461}, {"measurement": "solubility (mole fraction)", "setting": "in isopropanol, 313.15 K", "result": 0.000548}, {"measurement": "solubility (mole fraction)", "setting": "in isopropanol, 318.15 K", "result": 0.000643}, {"measurement": "solubility (mole fraction)", "setting": "in isopropanol, 323.15 K", "result": 0.000757}, {"measurement": "solubility (mole fraction)", "setting": "in n-butanol, 283.15 K", "result": 0.000282}, {"measurement": "solubility (mole fraction)", "setting": "in n-butanol, 288.15 K", "result": 0.000332}, {"measurement": "solubility (mole fraction)", "setting": "in n-butanol, 293.15 K", "result": 0.000399}, {"measurement": "solubility (mole fraction)", "setting": "in n-butanol, 298.15 K", "result": 0.000477}, {"measurement": "solubility (mole fraction)", "setting": "in n-butanol, 303.15 K", "result": 0.000567}, {"measurement": "solubility (mole fraction)", "setting": "in n-butanol, 308.15 K", "result": 0.000674}, {"measurement": "solubility (mole fraction)", "setting": "in n-butanol, 313.15 K", "result": 0.000787}, {"measurement": "solubility (mole fraction)", "setting": "in n-butanol, 318.15 K", "result": 0.000916}, {"measurement": "solubility (mole fraction)", "setting": "in n-butanol, 323.15 K", "result": 0.00107}, {"measurement": "solubility (mole fraction)", "setting": "in n-propanol, 283.15 K", "result": 0.000222}, {"measurement": "solubility (mole fraction)", "setting": "in n-propanol, 288.15 K", "result": 0.000272}, {"measurement": "solubility (mole fraction)", "setting": "in n-propanol, 293.15 K", "result": 0.000334}, {"measurement": "solubility (mole fraction)", "setting": "in n-propanol, 298.15 K", "result": 0.000406}, {"measurement": "solubility (mole fraction)", "setting": "in n-propanol, 303.15 K", "result": 0.000489}, {"measurement": "solubility (mole fraction)", "setting": "in n-propanol, 308.15 K", "result": 0.000577}, {"measurement": "solubility (mole fraction)", "setting": "in n-propanol, 313.15 K", "result": 0.000677}, {"measurement": "solubility (mole fraction)", "setting": "in n-propanol, 318.15 K", "result": 0.000792}, {"measurement": "solubility (mole fraction)", "setting": "in n-propanol, 323.15 K", "result": 0.000923}]}]}
